Source: US20220257592A1, “METHODS OF TREATING CANCER” (HOFFMANN-LA ROCHE INC., priority 2019, published 2022)

Legend:
[1] = biological target: TrkB (Homo sapiens, UniProt Q16620); conditions: cited from earlier work
[2] = tested on: cancer having at least one molecular alteration in one or more of ALK, ROS1, TrkA, TrkB and TrkC; conditions: early clinical studies; cited from earlier work
[3] = biological target: anaplastic lymphoma kinase (ALK) (Homo sapiens, UniProt Q9UM73); conditions: cited from earlier work
Chain of anaplastic lymphoma kinase (ALK) (Q9UM73 19-1620): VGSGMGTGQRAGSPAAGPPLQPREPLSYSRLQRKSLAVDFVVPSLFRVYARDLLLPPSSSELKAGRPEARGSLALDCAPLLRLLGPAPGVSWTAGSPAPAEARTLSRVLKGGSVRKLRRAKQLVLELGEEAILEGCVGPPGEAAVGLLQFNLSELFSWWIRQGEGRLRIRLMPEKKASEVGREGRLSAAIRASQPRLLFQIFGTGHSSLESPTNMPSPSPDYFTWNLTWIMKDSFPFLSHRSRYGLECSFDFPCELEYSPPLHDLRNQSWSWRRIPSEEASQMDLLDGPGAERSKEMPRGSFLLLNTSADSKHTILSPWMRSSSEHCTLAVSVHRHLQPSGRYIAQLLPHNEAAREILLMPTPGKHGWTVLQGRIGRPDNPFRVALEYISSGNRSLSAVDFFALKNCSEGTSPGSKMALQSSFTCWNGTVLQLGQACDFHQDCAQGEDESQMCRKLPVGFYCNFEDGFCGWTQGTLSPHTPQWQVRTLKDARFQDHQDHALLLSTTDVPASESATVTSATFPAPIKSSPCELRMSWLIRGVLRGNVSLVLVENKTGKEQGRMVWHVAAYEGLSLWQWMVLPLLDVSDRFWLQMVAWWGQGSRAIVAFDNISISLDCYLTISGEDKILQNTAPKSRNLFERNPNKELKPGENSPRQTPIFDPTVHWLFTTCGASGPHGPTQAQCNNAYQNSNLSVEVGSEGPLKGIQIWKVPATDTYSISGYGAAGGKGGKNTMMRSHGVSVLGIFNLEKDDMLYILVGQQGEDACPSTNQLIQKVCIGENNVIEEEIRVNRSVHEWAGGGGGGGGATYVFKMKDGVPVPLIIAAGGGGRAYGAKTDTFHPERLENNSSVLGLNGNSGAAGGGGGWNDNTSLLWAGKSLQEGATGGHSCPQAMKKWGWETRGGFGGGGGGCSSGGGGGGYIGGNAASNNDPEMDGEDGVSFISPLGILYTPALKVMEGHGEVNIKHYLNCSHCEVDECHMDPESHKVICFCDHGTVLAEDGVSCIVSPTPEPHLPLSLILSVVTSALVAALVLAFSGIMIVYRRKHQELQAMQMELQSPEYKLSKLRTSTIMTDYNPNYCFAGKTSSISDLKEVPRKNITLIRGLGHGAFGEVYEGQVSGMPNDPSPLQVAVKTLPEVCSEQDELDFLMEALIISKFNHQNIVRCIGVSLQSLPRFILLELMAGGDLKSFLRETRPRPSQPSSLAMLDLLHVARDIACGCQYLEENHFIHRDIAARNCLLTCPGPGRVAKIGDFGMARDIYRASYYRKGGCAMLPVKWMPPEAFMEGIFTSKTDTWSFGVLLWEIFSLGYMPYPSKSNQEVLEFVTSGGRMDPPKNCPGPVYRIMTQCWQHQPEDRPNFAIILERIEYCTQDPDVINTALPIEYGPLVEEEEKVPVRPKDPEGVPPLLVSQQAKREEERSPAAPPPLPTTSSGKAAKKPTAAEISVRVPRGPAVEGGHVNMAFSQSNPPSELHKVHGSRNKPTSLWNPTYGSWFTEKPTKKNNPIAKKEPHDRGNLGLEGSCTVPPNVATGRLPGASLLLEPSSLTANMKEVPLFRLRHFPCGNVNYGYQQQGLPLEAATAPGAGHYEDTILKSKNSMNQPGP

[4] = Expanded safety population (338 adult and 30 pediatric patients), fractures; format: in vivo, human
From the text: In adult patients, some fractures occurred in the setting of a fall or other trauma to the affected area, while in pediatric patients, all fractures occurred in patients with minimal or no trauma. In general, there was inadequate assessment for tumor involvement at the site of fracture; however, radiologic abnormalities possibly indicative of tumor involvement were reported in some patients. In both adult and pediatric patients, most fractures were hip or other lower extremity fractures (e.g., femoral or tibial shaft). In a limited number of patients, bilateral femoral neck fractures occurred. The median time to fracture was 3.8 months (range 0.3 to 18.5 months) in adults and 4.0 months (range: 1.8 months to 7.4 months) in pediatric patients.

Chain of TrkB (Q16620 32-822): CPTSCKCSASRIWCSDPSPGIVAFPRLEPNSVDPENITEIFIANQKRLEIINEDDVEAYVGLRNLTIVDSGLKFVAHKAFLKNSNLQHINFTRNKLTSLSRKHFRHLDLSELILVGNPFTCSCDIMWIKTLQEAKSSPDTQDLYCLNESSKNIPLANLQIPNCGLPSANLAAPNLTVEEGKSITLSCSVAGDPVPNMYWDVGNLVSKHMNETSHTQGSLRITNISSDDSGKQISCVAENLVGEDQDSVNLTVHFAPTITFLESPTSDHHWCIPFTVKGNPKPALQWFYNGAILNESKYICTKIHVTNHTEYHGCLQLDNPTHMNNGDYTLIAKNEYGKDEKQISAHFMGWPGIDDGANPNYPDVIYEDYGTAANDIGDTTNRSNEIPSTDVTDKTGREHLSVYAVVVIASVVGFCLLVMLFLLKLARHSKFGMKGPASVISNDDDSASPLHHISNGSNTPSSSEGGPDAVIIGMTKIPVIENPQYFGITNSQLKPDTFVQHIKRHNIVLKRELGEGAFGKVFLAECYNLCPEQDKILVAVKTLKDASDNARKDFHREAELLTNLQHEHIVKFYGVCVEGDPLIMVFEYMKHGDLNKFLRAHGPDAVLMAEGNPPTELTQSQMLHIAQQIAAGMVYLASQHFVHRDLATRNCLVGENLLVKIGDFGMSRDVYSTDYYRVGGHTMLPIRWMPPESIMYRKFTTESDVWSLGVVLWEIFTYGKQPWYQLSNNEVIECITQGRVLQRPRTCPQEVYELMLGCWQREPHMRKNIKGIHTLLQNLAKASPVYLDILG

**Q.** For `CN1CCN(c2ccc(C(=O)Nc3n[nH]c4ccc(Cc5cc(F)cc(F)c5)cc34)c(NC3CCOCC3)c2)CC1` [Entrectinib, N-[5-(3,5-difluorobenzyl)-1H-indazol-3-yl]-4-(4-methyl-piperazin-1-yl)-2-(tetrahydro-pyran-4-ylamino)-benzamide], which “inhibition of TrkB tyrosine kinase” value [1] is on record?
**A.** potent inhibitor

**Q.** What about the “antitumor effects in patients” value [2] of the same compound?
**A.** antitumor effects

**Q.** What about the “inhibition of ALK tyrosine kinase” value [3] of the same compound?
**A.** potent inhibitor

**Q.** And the Fractures ([4]; 30 pediatric patients)?
**A.** 23%

**Q.** What about the Fractures ([4]; 338 adult patients) of the same compound?
**A.** 5%

**Q.** And the “Entrectinib interrupted due to fractures” value ([4]; adults)?
**A.** 41%

**Q.** And the “Median time to fracture” value ([4]; adults, range 0.3 to 18.5 months)?
**A.** 3.8 months

**Q.** What about the “Discontinuation due to fractures” value ([4]; human, in vivo) of the same compound?
**A.** No patients discontinued

**Q.** And the Risk of fractures ([4]; human, in vivo)?
**A.** increases the risk of fractures

**Q.** What about the “Entrectinib interrupted due to fractures” value ([4]; pediatric patients) of the same compound?
**A.** 43%

**Q.** What about the “Median time to fracture” value ([4]; pediatric patients, range: 1.8 months to 7.4 months) of the same compound?
**A.** 4.0 months
